According to US20140128336A1, “MEDICAL PRODUCTS FOR USE IN CONDITIONS RELATED TO MICROBIAL INFECTIONS IN THE UPPER AERODIGESTIVE TRACT” (BIOHIT OYJ, priority 2011, published 2014):

Key:
[1] = tested on: H. pylori strains (NCTC 11637, ATCC 43504); test: Modified pellicle assay for H. pylori biofilm formation; assay type: cell-based, Helicobacter pylori
From the text: In this example, H. pylori strains (NCTC 11637, National Culture Collection, London, UK, and ATCC 43504, American Type Culture Collection), grown in liquid culture without shaking, were examined to determine their ability to form biofilms in the presence and absence of L-cysteine. The bacteria were screened for biofilm production using modified pellicle assay as previously described by Joshua et al. 2006 (14). The formation of pellicles at the liquid-gas interface of cultures grown without shaking was observed after 3-6 days. All isolates were grown in 13-by 125-mm glass test tubes containing 6 ml of BHI broth supplemented with 2% (w/v) β-cyclodextrin (BCD; Sigma) in the presence and absence of L-cysteine. The bacterial concentration was adjusted equivalently to approximately 0.5 McFarland standard (˜10^8 CFU/ml). The cultures were incubated under microaerobic conditions (N2 85%; O2 5%; CO2 10%) at 35° C. for 7 days without shaking. Development of pellicle and/or attached bacterial cells at interior surface of test tube at the air-liquid interface, representing as biofilm, was examined daily. In the tests using L-cysteine and N-acetyl-cysteine, increasing amounts of L-cysteine or N-acetyl-cysteine were added in increasing concentrations to the culture medium.

H. pylori = test: Open-label randomized trial, eradication of Helicobacter pylori; assay type: in vivo, human; details: patients with at least four eradication failures; 600 mg NAC once a day for seven days before culture-guided antibiotic regimen; standard group 4/20
Method: In this open-label randomized trial, 50% of patients with at least four H. pylori eradication failures received before culture-guided antibiotic regimen 600 mg of N-acetylcysteine (NAC) once a day for seven days. In the NAC-pretreatment group H. pylori were successfully eradicated in 13/20 and in standard group only in 4/20 patients (p<01).

C. cladosporioides = details: block containing cysteine; cited from earlier work
[2] = tested on: Cladosporium cladosporioides; details: cited from earlier work

| Structure (SMILES) | inhibition of H. pylori biofilm formation ([1]; 2 mg/ml in culture medium) | inhibition of H. pylori biofilm formation ([1]; 10 mg/ml in culture medium) | inhibition of H. pylori biofilm formation ([1]; 20 mg/ml in culture medium) | H. pylori successfully eradicated (H. pylori) | biofilm of C. cladosporioides on surface of silicone block (C. cladosporioides) | production of ATP in C. cladosporioides [2] | growth of Cladosporium cladosporioides ([2]; cultured with cysteine) |
| --- | --- | --- | --- | --- | --- | --- | --- |
| N[C@@H](CS)C(=O)O [L-cysteine] | partly | completely | completely | – | – | – | – |
| CC(=O)N[C@@H](CS)C(=O)O [N-acetylcysteine, reference compound] | partly | completely | completely | 13/20 | – | – | – |
| N[C@@H](CS)C(=O)O [cysteine] | – | – | – | – | not covered with biofilm | inhibited | completely and statically inhibited |
